According to PubChem BioAssay AID2060898 (Molecular Pharmacology Branch, DTP, NCI, 2025):

Test system: 616215-338-R-J1-PDC complex spheroid viability
Assay: Anticancer human tumor 616215-338-R-J1-PDC patient-derived colon adenocarcinoma cell line growth inhibition [RAS]
Settings: for IC50: curve of first compound; for viability, T/C: stronger effect = lower value
Excerpt: RAS pathway inhibitors in Combinations in Complex Spheroids
A high-throughput screen of multi-cell type tumor spheroids was designed to identify active combinations of RAS pathway inhibitors and targeted small molecules. Complex spheroids include a stromal component modeled by human endothelial cells (HUVEC) and fibroblasts modeled by human mesenchymal stem cells (MSCs). The concentration ranges selected for each drug and investigational agent were based upon clinically achievable concentrations if the clinical Cmax of the agent was known.
Compounds. The drugs and investigational agents: abemaciclib (NSC768073), cobimetinib (NSC768068), divarasib (GDC6063, NSC841802), docetaxel (NSC628503), GDC-1971 (RLY-1971, NSC841576), gemcitabine (NSC613327), inavolisib (NSC800729), ipatasertib (NSC767898), KB-0742 (NSC834161), MRTX-1133 (NSC836407), osimertinib (NSC779217), RMC-4630 (NSC839698), RMC-6236 (NSC851965), RMC-6291 (NSC852671), Ro-3306 (NSC812927), sapanisertib (NSC764658), SN-38 (NSC673596), staurosporine (NSC755774), SY5609 (NSC837396), and tovorafenib (DAY101, NSC766906), were obtained from the National Cancer Institute (NCI) Developmental Therapeutics Program Chemical Repository. The FDA-approved anticancer drug set is available from the NCI Developmental Therapeutics Program. […] The stock solutions were prepared in dimethyl sulfoxide (DMSO, Sigma-Aldrich, St. Louis, MO, cat. D2650) at 800-fold the tested concentration and stored at -70 degrees C prior to their use. All drugs and investigational agents were tested over a range starting from a high concentration at or near the clinical Cmax and decreasing in half-log increments. If the clinical Cmax for an agent had not been determined, the highest concentration tested was 10 microM.
Cell Culture. All cells were maintained in an incubator at 37 degrees C and 5% CO2 with 95% humidity. The PDC lines were cultured according to standard operating procedures established by the NCI PDMR. All PDCs were thawed and cultured in Matrigel-coated flasks prepared with a working solution of 1X Ham's F-12 nutrient mix, without supplementation (Invitrogen, Waltham, MA, cat. 11765054), 100 U/mL penicillin-streptomycin (Invitrogen, cat. 15140122), and 2.5% Matrigel (Corning Inc., Corning, NY, cat. 354248) for the first three passages. The 362531-283-R-J2-PDC and 782815-120-R-J1-PDC lines were cultured in 6C/Colon 1B media, which includes advanced DMEM/F-12 (Thermo Fisher Scientific, cat. 12634028), 10 mM HEPES (Thermo Fisher Scientific, cat. 15630080), 1X GlutaMAX supplement (Thermo Fisher Scientific, cat. 35050061), 0.1 mg/mL primocin (InvivoGen, San Diego, CA, cat. ant-pm-2), 10% defined fetal bovine serum, heat inactivated (HyClone Laboratories Inc., Logan, UT, cat. SH30070.03HI), 50% L-WRN conditioned media (ATCC, cat. CRL-3276), 1.25 mM N-Acetyl-L-cysteine (Sigma-Aldrich, cat. A9165), 10 mM nicotinamide (Sigma-Aldrich, cat. N0636), 1X B-27 supplement (Thermo Fisher Scientific, cat. 17504044), 1X N-2 supplement (Thermo Fisher Scientific, cat. 17502048), 50 ng/mL human EGF (Thermo Fisher Scientific, cat. PHG0311), and 10 microM Y-27632 dihydrochloride (Tocris Bioscience, cat. 1254). The K12877-001-R-J1-PDC line was cultured in 6I media, which includes all 6C/Colon 1B media plus 10 ng/mL human FGF-10 (PeproTech, cat. 100-26), 1 ng/mL human FGF-2 (PeproTech, cat. 100-18B), 1 µM prostaglandin E2 (Tocris Bioscience, cat. 2296), […] hydrocortisone (Sigma-Aldrich, cat. H4001), and […] bovine insulin (Sigma-Aldrich, cat. I6634). The K86415-001-R-J1-PDC line was cultured in 6D media, which includes all 6C/Colon 1B media components minus the L-WRN conditioned media. The 485176-168-R4-J1-PDC was cultured in PANC media, which includes all 6C/Colon 1B media plus 100 ng/mL human FGF-10 (PeproTech, cat. 100-26), 500 nM SB-431542 (Selleckchem, cat. S1067), and 10 nM gastrin (Tocris Bioscience, cat. 3006). […]
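Further: spheroids exposed to agents for seven days before viability readout.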
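Wherever viability, T/C is given: 100% = DMSO vehicle control viability.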

IC50 (second compound 0.000949 µM): 7560 nM | IC50 (second compound 0.003 µM): 5480 nM | IC50 (second compound 0.00949 µM): 2380 nM | IC50 (second compound 0.03 µM): < 31.6 nM | IC50 (second compound 0.0949 µM): < 31.6 nM | IC50 (second compound 0.3 µM): < 31.6 nM
SMILES: CC(C)NCC(C(=O)N1CCN(c2ncnc3c2C(C)CC3O)CC1)c1ccc(Cl)cc1 (configuration not stated) + CCn1c(-c2cc(N3CCN(C)CC3)cnc2C(C)OC)c2c3cc(ccc31)-c1csc(n1)CC(NC(=O)C1CC1C)C(=O)N1CCCC(N1)C(=O)OCC(C)(C)C2
viability, T/C (second compound 0.000949 µM, first compound 0.0316 µM): 109% | viability, T/C (second compound 0.000949 µM, first compound 0.1 µM): 106% | viability, T/C (second compound 0.000949 µM, first compound 0.316 µM): 102% | viability, T/C (second compound 0.000949 µM, first compound 1 µM): 106% | viability, T/C (second compound 0.000949 µM, first compound 3.16 µM): 78.2% | viability, T/C (second compound 0.000949 µM, first compound 10 µM): 41% | viability, T/C (second compound 0.003 µM, first compound 0.0316 µM): 113% | viability, T/C (second compound 0.003 µM, first compound 0.1 µM): 107% | viability, T/C (second compound 0.003 µM, first compound 0.316 µM): 103% | viability, T/C (second compound 0.003 µM, first compound 1 µM): 105% | viability, T/C (second compound 0.003 µM, first compound 3.16 µM): 67.5% | viability, T/C (second compound 0.003 µM, first compound 10 µM): 30.9% | viability, T/C (second compound 0.00949 µM, first compound 0.0316 µM): 96.1% | viability, T/C (second compound 0.00949 µM, first compound 0.1 µM): 85.1% | viability, T/C (second compound 0.00949 µM, first compound 0.316 µM): 81.7% | viability, T/C (second compound 0.00949 µM, first compound 1 µM): 82.1% | viability, T/C (second compound 0.00949 µM, first compound 3.16 µM): 39.6% | viability, T/C (second compound 0.00949 µM, first compound 10 µM): 21.6% | viability, T/C (second compound 0.03 µM, first compound 0.0316 µM): 50.8% | viability, T/C (second compound 0.03 µM, first compound 0.1 µM): 40% | viability, T/C (second compound 0.03 µM, first compound 0.316 µM): 36.5% | viability, T/C (second compound 0.03 µM, first compound 1 µM): 47.7% | viability, T/C (second compound 0.03 µM, first compound 3.16 µM): 26.1% | viability, T/C (second compound 0.03 µM, first compound 10 µM): 14.5% | viability, T/C (second compound 0.0949 µM, first compound 0.0316 µM): 43.7% | viability, T/C (second compound 0.0949 µM, first compound 0.1 µM): 34.9% | viability, T/C (second compound 0.0949 µM, first compound 0.316 µM): 33.3% | viability, T/C (second compound 0.0949 µM, first compound 1 µM): 25.9% | viability, T/C (second compound 0.0949 µM, first compound 3.16 µM): 22% | viability, T/C (second compound 0.0949 µM, first compound 10 µM): 11.1% | viability, T/C (second compound 0.3 µM, first compound 0.0316 µM): 52% | viability, T/C (second compound 0.3 µM, first compound 0.1 µM): 29.9% | viability, T/C (second compound 0.3 µM, first compound 0.316 µM): 32.8% | viability, T/C (second compound 0.3 µM, first compound 1 µM): 26.6% | viability, T/C (second compound 0.3 µM, first compound 3.16 µM): 19.4% | viability, T/C (second compound 0.3 µM, first compound 10 µM): 11.1%
